This passage reports IC50 results from patent US7704995B2 (Exelixis, Inc., priority 2003, dated 2010).

This assay addresses T1, Chk1 (Homo sapiens, UniProt O14757).
T1 construct: purchased Upstate Biotechnology
T1 sequence (O14757 1-476): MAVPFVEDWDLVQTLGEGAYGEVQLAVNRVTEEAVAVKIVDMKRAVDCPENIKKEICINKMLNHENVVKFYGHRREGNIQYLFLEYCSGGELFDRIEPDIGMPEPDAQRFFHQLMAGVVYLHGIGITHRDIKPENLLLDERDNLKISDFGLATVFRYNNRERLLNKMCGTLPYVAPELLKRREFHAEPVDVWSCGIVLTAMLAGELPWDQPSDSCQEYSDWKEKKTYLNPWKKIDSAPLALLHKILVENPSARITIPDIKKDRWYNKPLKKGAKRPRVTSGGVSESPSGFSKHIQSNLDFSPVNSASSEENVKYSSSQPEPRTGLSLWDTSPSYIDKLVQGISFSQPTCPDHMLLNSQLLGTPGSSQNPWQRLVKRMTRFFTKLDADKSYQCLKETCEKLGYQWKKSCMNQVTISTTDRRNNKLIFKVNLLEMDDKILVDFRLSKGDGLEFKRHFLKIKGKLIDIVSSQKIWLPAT
In words: Chk1 kinase assay: incorporation of γ-33P ATP into immobilized myelin basic protein. Conditions: read-out: Chk1 IC50. It is filed as biochemical. In short, it runs like this:
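Enzyme activity is measured as γ-33P transfer from ATP onto immobilized MBP over 1 h at room temperature, with Chk1 at 10 nM/10 μM unlabeled ATP and Chk2 at 20 nM/30 μM unlabeled ATP. Compounds are tested in 1% DMSO.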

For orientation: IC50 means the midpoint of a concentration-inhibition curve. On to `CNC(=O)c1nc(-c2cccc(C(=O)NCC3CC3)c2)cnc1N` [Example 219, 3-amino-6-(3-{[(cyclopropylmethyl)amino]carbonyl}phenyl)-N-methylpyrazine-2-carboxamide], for which the IC50 lay within 0.05 to 1 µM. Under `CNC(=O)c1nc(-c2cccc(C(=O)NC3CCCC3)c2)cnc1N` [Example 220, 3-amino-6-{3-[(cyclopentylamino)carbonyl]phenyl}-N-methylpyrazine-2-carboxamide] stands 1 to 10 µM; under `CNC(=O)c1nc(-c2cccc(C(=O)Nc3ccc(C)cc3)c2)cnc1N` [Example 221, 3-amino-N-methyl-6-(3-{[(4-methylphenyl)amino]carbonyl}phenyl)pyrazine-2-carboxamide], 1 to 10 µM. Consider `CNC(=O)c1nc(-c2cccc(C(=O)Nc3ccc(OC)cc3)c2)cnc1N` [Example 222, 3-amino-N-methyl-6-[3-({[4-(methyloxy)phenyl]amino}carbonyl)phenyl]pyrazine-2-carboxamide], for which the IC50 was in the range of 0.05 to 1 µM.

With `CNC(=O)c1nc(-c2cccc(C(=O)NCc3ccc4c(c3)OCO4)c2)cnc1N` [Example 223, 3-amino-6-(3-{[(1,3-benzodioxol-5-ylmethyl)amino]carbonyl}phenyl)-N-methylpyrazine-2-carboxamide], the IC50 lay within 0.05 to 1 µM.

For the molecule `CNC(=O)c1nc(-c2cccc(C(=O)NCc3cccc(-c4ccccc4)c3)c2)cnc1N` [Example 224, 3-amino-6-(3-{[(biphenyl-3-ylmethyl)amino]carbonyl}phenyl)-N-methylpyrazine-2-carboxamide], the IC50 fell in the range of 0.05 to 1 µM. Under `CNC(=O)c1nc(-c2cccc(C(=O)NC(C)(C)c3ccccc3)c2)cnc1N` [Example 225, 3-amino-N-methyl-6-(3-{[(1-methyl-1-phenylethyl)amino]carbonyl}phenyl)pyrazine-2-carboxamide] stands 1 to 10 µM. The value for `CNC(=O)c1nc(-c2cccc(C(=O)NCc3ccc(F)cc3F)c2)cnc1N` [Example 226, 3-amino-6-[3-({[(2,4-difluorophenyl)methyl]amino}carbonyl)phenyl]-N-methylpyrazine-2-carboxamide] was 0.05 to 1 µM; that for `CNC(=O)c1nc(-c2cccc(C(=O)NCc3ccc(OC(F)(F)F)cc3)c2)cnc1N` [Example 227, 3-amino-N-methyl-6-(3-{[({4-[(trifluoromethyl)oxy]phenyl}methyl)amino]carbonyl}phenyl)pyrazine-2-carboxamide] was 0.05 to 1 µM; that for `CNC(=O)c1nc(-c2cccc(C(=O)NCc3ccc(F)c(C(F)(F)F)c3)c2)cnc1N` [Example 228, 3-amino-6-{3-[({[4-fluoro-3-(trifluoromethyl)phenyl]methyl}amino)carbonyl]phenyl}-N-methylpyrazine-2-carboxamide] was 0.05 to 1 µM. Under `CNC(=O)c1nc(-c2cccc(C(=O)NCc3ccc(Cl)c(C(F)(F)F)c3)c2)cnc1N` [Example 229, 3-amino-6-{3-[({[4-chloro-3-(trifluoromethyl)phenyl]methyl}amino)carbonyl]phenyl}-N-methylpyrazine-2-carboxamide] stands 0.05 to 1 µM; under `CNC(=O)c1nc(-c2cccc(C(=O)NCc3ccc(N)cc3)c2)cnc1N` [Example 230, 3-amino-6-[3-({[(4-aminophenyl)methyl]amino}carbonyl)phenyl]-N-methylpyrazine-2-carboxamide], 0.05 to 1 µM; under `CNC(=O)c1nc(-c2cccc(C(=O)NCc3ccccc3N)c2)cnc1N` [Example 231, 3-amino-6-[3-({[(2-aminophenyl)methyl]amino}carbonyl)phenyl]-N-methylpyrazine-2-carboxamide], 0.05 to 1 µM. Consider `CNC(=O)c1nc(-c2cccc(C(=O)NCc3cccc(N)c3)c2)cnc1N` [Example 232, 3-amino-6-[3-({[(3-aminophenyl)methyl]amino}carbonyl)phenyl]-N-methylpyrazine-2-carboxamide], for which the IC50 lay within 0.05 to 1 µM. For the molecule `CNC(=O)c1nc(-c2cncnc2)cnc1N` [Example 233, 3-amino-N-methyl-6-pyrimidin-5-ylpyrazine-2-carboxamide], the IC50 was at least 10 µM. The value for `CNC(=O)c1nc(-c2cccc(S(C)(=O)=O)c2)cnc1N` [Example 234, 3-amino-N-methyl-6-[3-(methylsulfonyl)phenyl]pyrazine-2-carboxamide] was 1 to 10 µM. As to `CNC(=O)c1nc(-c2ccc(OC3CCCCO3)cc2)cnc1N` (stereo not shown) [Example 235, 3-amino-N-methyl-6-[4-(tetrahydro-2H-pyran-2-yloxy)phenyl]pyrazine-2-carboxamide], the IC50 was in the range of 0.05 to 1 µM. Under `CNC(=O)c1nc(-c2ccc(O)cc2)cnc1N` [Example 236, 3-amino-6-(4-hydroxyphenyl)-N-methylpyrazine-2-carboxamide] stands 0.05 to 1 µM.

Consider `CNC(=O)c1nc(-c2cccc(C(=O)NCc3ccc(S(N)(=O)=O)cc3)c2)cnc1N` [Example 237, 3-amino-6-{3-[({[4-(aminosulfonyl)phenyl]methyl}amino)carbonyl]phenyl}-N-methylpyrazine-2-carboxamide], for which the IC50 was in the range of 0.05 to 1 µM. The value for `CNC(=O)c1nc(-c2cccc(C(=O)NCc3ccc(N(C)C)cc3)c2)cnc1N` [Example 238, 3-amino-6-{3-[({[4-(dimethylamino)phenyl]methyl}amino)carbonyl]phenyl}-N-methylpyrazine-2-carboxamide] was 0.05 to 1 µM.

For `CNC(=O)c1nc(-c2cccc(C(=O)NCc3cccc(Br)c3)c2)cnc1N` [Example 239, 3-amino-6-[3-({[(3-bromophenyl)methyl]amino}carbonyl)phenyl]-N-methylpyrazine-2-carboxamide], the IC50 is 0.05 to 1 µM. Under `CNC(=O)c1nc(-c2ccc(Cl)c(C(=O)NCc3ccccc3)c2)cnc1N` [Example 240, 3-amino-6-(4-chloro-3-{[(phenylmethyl)amino]carbonyl}phenyl)-N-methylpyrazine-2-carboxamide] stands 0.05 to 1 µM. The value for `COC(=O)c1cccc(-c2cnc(N)c(C(=O)NC3CC3)n2)c1` [Example 241, methyl 3-{5-amino-6-[(cyclopropylamino)carbonyl]pyrazin-2-yl}benzoate] was at least 10 µM; that for `CCNC(=O)c1nc(-c2cccc(C(=O)OC)c2)cnc1N` [Example 242, methyl 3-{5-amino-6-[(ethylamino)carbonyl]pyrazin-2-yl}benzoate] was 1 to 10 µM. The value for `CNC(=O)c1nc(-c2cccc(C(=O)NCc3cccc(C)c3C)c2)cnc1N` [Example 243, 3-amino-6-[3-({[(2,3-dimethylphenyl)methyl]amino}carbonyl)phenyl]-N-methylpyrazine-2-carboxamide] was 0.05 to 1 µM. As for `CNC(=O)c1nc(-c2cccc(C(=O)NCc3ccc(O)c(OC)c3)c2)cnc1N` [Example 244, 3-amino-6-{3-[({[4-hydroxy-3-(methyloxy)phenyl]methyl}amino)carbonyl]phenyl}-N-methylpyrazine-2-carboxamide], the IC50 fell in the range of 0.05 to 1 µM.

Take `CNC(=O)c1nc(-c2cccc(C(=O)NCc3ccc(Cl)cc3C)c2)cnc1N` [Example 245, 3-amino-6-[3-({[(4-chloro-2-methylphenyl)methyl]amino}carbonyl)phenyl]-N-methylpyrazine-2-carboxamide]: the IC50 was 0.05 to 1 µM. As for `CCOc1ccccc1CNC(=O)c1cccc(-c2cnc(N)c(C(=O)NC)n2)c1` [Example 246, 3-amino-6-{3-[({[2-(ethyloxy)phenyl]methyl}amino)carbonyl]phenyl}-N-methylpyrazine-2-carboxamide], the IC50 lay within 0.05 to 1 µM. Under `CNC(=O)c1nc(-c2cccc(C(=O)NCc3c(Cl)cccc3Oc3ccccc3)c2)cnc1N` [Example 247, 3-amino-6-{3-[({[2-chloro-6-(phenyloxy)phenyl]methyl}amino)carbonyl]phenyl}-N-methylpyrazine-2-carboxamide] stands 0.05 to 1 µM; under `CNC(=O)c1nc(-c2cccc(C(=O)NCc3cc(Cl)ccc3Cl)c2)cnc1N` [Example 248, 3-amino-6-[3-({[(2,5-dichlorophenyl)methyl]amino}carbonyl)phenyl]-N-methylpyrazine-2-carboxamide], 0.05 to 1 µM. The value for `CNC(=O)c1nc(-c2cccc(C(=O)NCc3c(OC)cccc3OC)c2)cnc1N` [Example 249, 3-amino-6-{3-[({[2,6-bis(methyloxy)phenyl]methyl}amino)carbonyl]phenyl}-N-methylpyrazine-2-carboxamide] was 1 to 10 µM; that for `CNC(=O)c1nc(-c2cccc(C(=O)NCc3c(C)cccc3Cl)c2)cnc1N` [Example 250, 3-amino-6-[3-({[(2-chloro-6-methylphenyl)methyl]amino}carbonyl)phenyl]-N-methylpyrazine-2-carboxamide] was 0.05 to 1 µM. The value for `CNC(=O)c1nc(-c2cccc(C(=O)NCc3cc(F)c(F)cc3F)c2)cnc1N` [Example 251, 3-amino-N-methyl-6-[3-({[(2,4,5-trifluorophenyl)methyl]amino}carbonyl)phenyl]pyrazine-2-carboxamide] was 0.05 to 1 µM; that for `CNC(=O)c1nc(-c2cccc(C(=O)NCC(C)(C)C)c2)cnc1N` [Example 252, 3-amino-6-(3-{[(2,2-dimethylpropyl)amino]carbonyl}phenyl)-N-methylpyrazine-2-carboxamide] was 1 to 10 µM.
